Where two headings read alike, the source gives them in different places.
Legend:
RIL-175 cells = assay: STAT1/STAT3 activity in RIL-175 cells in vitro (western blot); assay type: cell-based, mouse; settings: 1 µM in vitro
Description: (§1) (A) Changes induced by combination of regorafenib (10 mg/kg) with anti-PD1 antibody in immune-related pathways from the gene set enrichment analysis (GSEA) using curated gene sets in RIL-175 HCC model (see also online supplemental dataset S1 and figure S2E). (B, C) Changes induced by combination of regorafenib (10 mg/kg) with anti-PD1 antibody in STAT3 and STAT1 activity (B), showing an increased ratio of phosphorylated (p)-STAT1/p-STAT3 (normalized to total STAT1 and STAT3, respectively) by western blot analysis of whole RIL-175 HCC tissue (C) (n=4 mice). (D) Treatment with regorafenib increases CXCL10 expression by RIL-175 HCC cells in vitro after 36 hours, in a dose-dependent manner (n=6). Culture medium alone was used as a negative control (NC). […] (J, K) Combination therapy increases CXCL10 protein expression in whole RIL-175 tumor tissue 6 hours and 12 hours after in vivo when regorafenib treatment was used at doses of 10 mg/kg (R10) and 20 mg/kg (R20) (n=3) by western blot analysis (J); quantitative data of CXCL10/β-actin ratios are shown in (K). […]
(§2) Flow cytometry analysis. […] After preparation, cells were suspended in 2ml of PBS with 2% BSA, then counted using a cell counting plate (Kova slide) (if the final concentration of cell exceeded 10^7 cells/ml, a dilution factor was applied). […]

CXCL10 = assay: Plasma CXCL10 in patients before and after 2 weeks of regorafenib; assay type: in vivo, human; settings: patients with advanced HCC (n=1) and AML (n=7); after 2 weeks of treatment
Description: Formalin-fixed paraffin-embedded HCC tissue and blood samples were obtained with informed consent from a published cohort of deidentified patients who underwent liver resection at the department of Surgery at Fundeni Clinical Institute, Bucharest, Romania.[31] Furthermore, we collected blood samples with informed consent from patients treated by regorafenib as standard of care (HCC) or in a phase I clinical trial of regorafenib monotherapy in patients with acute myeloid leukemia (AML). Peripheral blood was collected before regorafenib therapy and after 2 weeks of treatment and processed in a Clinical Laboratory Improvement Amendments-certified facility of the Steele Laboratories at MGH. […]
treated by regorafenib as standard of care (HCC) (using the DFCI Protocol No.: 13-416 “Collection of Specimens and Clinical Data for Patients with Known or Suspected Solid Tumors”, PI, Dr. Juric, MGH) or in a phase I clinical trial of regorafenib monotherapy in acute myeloid leukemia (AML) patients (ClinicalTrials.gov Identifier: NCT03042689, PI, Hobbs, MGH). Both protocols have been IRB approved, and written consent was obtained from all patients.
Protein analyses. […]
as §2

STAT3 = assay: STAT1/STAT3 phosphorylation in RIL-175 HCC tissue; assay type: in vivo, mouse; settings: samples of the PK study
Description: as §1, §2

[1] = in vivo
Description: (§3) From the orthotopic HCC and liver damage mouse models described above, blood samples were collected at 1, 4, 7 and 24 hours after once-daily oral administration of 5, 10 and 20 mg/kg regorafenib, respectively, for 5 days. Anti-PD1 antibody was given on days 1 and 4 with dose of 10 mg/kg by intraperitoneal injection. Blood samples were drawn from four to five animals per sampling time point. Regorafenib and its active metabolites M-2, M-4 and M-5 were analyzed in plasma samples using a validated bioanalytical liquid chromatography-tandem mass spectrometry.[25 33] Pharmacokinetic (PK) parameters were derived from the area under the plasma concentration versus time curve (AUC) using a non-compartmental analysis.
(§4) In addition, we evaluated PK parameters in HCC-bearing mice after regorafenib administration alone at doses of 5, 10 and 20 mg/kg or in combination with anti-PD1 therapy at the 10 mg/kg regorafenib dose for 5 days to achieve a steady state.

in vivo = settings: C57Bl/6, mouse, po; for AUC: Plasma AUC; for Cmax: Plasma Cmax
Description: as §3, §4

CNC(=O)c1cc(Oc2ccc(NC(=O)Nc3ccc(Cl)c(C(F)(F)F)c3)c(F)c2)ccn1 [regorafenib]
STAT1 and STAT3 activity (p-STAT1/p-STAT3) in RIL-175 cells (RIL-175 cells): STAT1 activation and STAT3 inhibition
Concentration of plasma CXCL10 (CXCL10): increased concentration
Phosphorylated (p)STAT3 levels in HCC tissues (STAT3): inhibited
Tumor AUC ([1]; C57Bl/6, mouse, po, 5 mg/kg): 2320 ng·h/mL
Tumor AUCnorm ([1]; C57Bl/6, mouse, po, 5 mg/kg): 0.465 kg·h/L
Tumor Cmax ([1]; C57Bl/6, mouse, po, 5 mg/kg): 191 µg/kg
Plasma AUC ([1]; C57Bl/6, mouse, po, 10 mg/kg): 2140 ng·h/mL
Plasma Cmax ([1]; C57Bl/6, mouse, po, 10 mg/kg): 190 ng/mL
Tumor AUC ([1]; C57Bl/6, mouse, po, 10 mg/kg): 4670 ng·h/mL
Tumor AUCnorm ([1]; C57Bl/6, mouse, po, 10 mg/kg): 0.467 kg·h/L
Tumor Cmax ([1]; C57Bl/6, mouse, po, 10 mg/kg): 291 µg/kg
Tumor AUC ([1]; C57Bl/6, mouse, po, 20 mg/kg): 7930 ng·h/mL
Tumor AUCnorm ([1]; C57Bl/6, mouse, po, 20 mg/kg): 0.396 kg·h/L
Tumor Cmax ([1]; C57Bl/6, mouse, po, 20 mg/kg): 575 µg/kg
Cmax in the tumor tissue, combination group versus R10 group ([1]; mouse): higher
Plasma AUC0–24 and Cmax versus dose ([1]; mouse): dose-proportional
Tumor AUC0–24 and Cmax versus dose ([1]; mouse): dose-proportional increase
Plasma AUCnorm ([1]; mouse, po, 5 mg/kg): 0.290 kg·h/L
Plasma AUCnorm ([1]; mouse, po, 10 mg/kg): 0.241 kg·h/L
Plasma AUCnorm ([1]; mouse, po, 20 mg/kg): 0.287 kg·h/L
AUC (in vivo; 5 mg/kg): 1450 ng·h/mL
Cmax (in vivo; 5 mg/kg): 108 ng/mL
AUC (in vivo; 10 mg/kg): 2160 ng·h/mL
Cmax (in vivo; 10 mg/kg): 201 ng/mL
Tmax (in vivo; 10 mg/kg, Plasma Tmax): 1 h
Tmax (in vivo; 10 mg/kg, Tumor Tmax): 7 h
AUC (in vivo; 20 mg/kg): 5750 ng·h/mL
Cmax (in vivo; 20 mg/kg): 485 ng/mL

Source: article PMC7689089, “Regorafenib combined with PD1 blockade increases CD8 T-cell infiltration by inducing CXCL10 expression in hepatocellular carcinoma” (Journal for Immunotherapy of Cancer, 2020)
